Where a name gives a salt, the structure may show the parent alone. One block for each compound: values may come before it.
Legend:
aromatase = target: T1, aromatase (Rattus norvegicus, UniProt P22443); assay: Aromatase inhibition in the rat ovarian microsome assay; type: biochemical; settings: EC50: concentration required to achieve 50% inhibition of aromatase activity, substrate (androstenedione) concentration 0.1 μM
T1 construct: ovarian microsomes are obtained from rats treated with pregnant mares serum gonadotropin; from tissue; host or cells: ovarian microsomes of rats treated with pregnant mares serum gonadotropin
T1 sequence (P22443 1-508): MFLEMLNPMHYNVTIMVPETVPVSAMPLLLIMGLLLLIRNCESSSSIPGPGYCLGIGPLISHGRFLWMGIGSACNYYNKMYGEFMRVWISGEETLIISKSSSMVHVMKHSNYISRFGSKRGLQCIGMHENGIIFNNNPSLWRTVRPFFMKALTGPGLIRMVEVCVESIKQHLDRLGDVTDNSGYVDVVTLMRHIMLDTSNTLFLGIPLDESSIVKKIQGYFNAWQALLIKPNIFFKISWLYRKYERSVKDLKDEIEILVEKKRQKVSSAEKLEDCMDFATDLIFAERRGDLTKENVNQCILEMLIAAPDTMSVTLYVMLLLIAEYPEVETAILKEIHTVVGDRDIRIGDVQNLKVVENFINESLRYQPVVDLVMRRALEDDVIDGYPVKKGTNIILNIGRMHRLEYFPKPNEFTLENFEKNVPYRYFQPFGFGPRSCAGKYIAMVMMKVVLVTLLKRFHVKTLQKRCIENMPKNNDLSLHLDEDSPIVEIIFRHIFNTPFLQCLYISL
Method: In this test system, ovarian microsomes are obtained from rats treated with pregnant mares serum gonadotropin. Test compounds are added to reaction vials containing 0.1 μM 4-androstene-3,17-dione, 100,000 dpm 1,2[^3 H]-androstenedione, the microsomes and a NADPH generating system. The concentrations of the inhibitors tested ranged between 0.005 and 10 μM.

estrogen synthesis = assay: Estrogen synthesis inhibition in rats (uterine weight and ovarian steroid concentrations); type: in vivo, female Wistar rats; settings: for Mean Steroid Concentration, estradiol / Mean Steroid Concentration, estriol / Mean Steroid Concentration, estrone: ovaries; for Mean Uterine Weight: testosterone propionate-treated rats
Method: Test compounds were administered for seven days either daily by gavage in corn oil or as a component of the diet. Control animals received either corn oil or diet without the test compound. Beginning on the fourth day of the test, all animals treated with the test compound and one half of the control animals were given a subcutaneous injection of 1.0 mg of testosterone propionate in corn oil. The remaining control animals received only an equivalent volume of corn oil.
After two hours, the animals were killed by decapitation. Uteri were isolated, trimmed of extraneous connective tissue, and weighed. […] In the control animals treated with testosterone propionate, estrogens produced by aromatization stimulated the uterus resulting in an increase in weight.
The ovarian steroids were extracted with 1.5 ml of 9:1 (v/v) toluene/ethanol to which had been added 25 to 100 mcg each of unlabelled estradiol, estriol, and estrone, and approximately 1000 dpm of [^14 C]-estradiol. The samples were vortexed, centrifuged at 500×g for 10 minutes, and the organic phase was transferred to a conical vial. Two additional extractions were performed on the residue in the same way. The pooled organic extracts were evaporated for subsequent thin-layer chromatography.
Ovarian proteins were precipitated by the addition of 5.0 ml of ethanol to the remaining aqueous phase. After an overnight incubation at 4° C., the samples were centrifuged at 1500×g for 10 minutes. The supernatant was discarded, and the pellet was dissolved in 0.3N potassium hydroxide.
The organic residue from each above extraction was redissolved in 9:1 (v/v) dichloromethane/methanol. The solution of each sample was applied to separate silica gel thin layer chromatography plates which contained a fluorescent indicator. The plates were developed in the first dimension with 160:38:1.5:0.5 (v/v/v/v) dichloromethane/ethyl acetate/methanol/acetic acid to within 3 cm of the top of the plate. After air-drying, the plate was developed in the second dimension with 180:19:1 (v/v/v) dichloromethane/methanol/ammonium hydroxide. The plate was air-dried and viewed under 254 nm UV light.
The visible spots were marked and the plates were sprayed with primulin (0.001% in 4:1 v/v acetone/water) according to the method of Wright, J. Chromatography, 59, 220 (1971) which allowed for the identification of additional steroids under 365 nm UV light. The spots were scraped from the plate using a glass wool plugged Pasteur pipet attached to a vacuum line. The steroids were eluted directly into scintillation vials by the addition of 0.2 ml of dichloromethane followed by two washes each of 2.0 ml of methanol. The organic solvent was evaporated and 10.0 ml of scintillation fluid (Beckman Ready Solv-NA) was added to the vials. Samples were analyzed by liquid scintillation spectrometry. Corrections were made based on the recoveries of the [^14 C]-steroid. Steroid concentrations are expressed as femtomoles per milligram protein.

[1] = 30 ppm in feed (approximately 3 mg/kg/day)
[2] = 300 ppm in feed (approximately 30 mg/kg/day)
[3] = 200 ppm in feed (approximately 20 mg/kg/day)

EC50 (aromatase): 29 nM
Structure (SMILES): O=[N+]([O-])c1ccc(Cn2ccnc2)cc1 [1-[(4-nitrophenyl)methyl]-1H--imidazole hydrochloride]
Mean Steroid Concentration, estradiol (estrogen synthesis; [1]): 1.16 femtomoles per milligram of protein | Mean Steroid Concentration, estriol (estrogen synthesis; [1]): 0.80 femtomoles per milligram of protein | Mean Steroid Concentration, estrone (estrogen synthesis; [1]): 0.88 femtomoles per milligram of protein | Mean Uterine Weight (estrogen synthesis; [1]): 185.3 mg | Mean Steroid Concentration, estradiol (estrogen synthesis; [2]): 0.79 femtomoles per milligram of protein | Mean Steroid Concentration, estriol (estrogen synthesis; [2]): 1.11 femtomoles per milligram of protein | Mean Steroid Concentration, estrone (estrogen synthesis; [2]): 1.19 femtomoles per milligram of protein | Mean Uterine Weight (estrogen synthesis; [2]): 147.2 mg

EC50 (aromatase): 87 nM
Structure (SMILES): Cl.Clc1cccc(Cn2ccnc2)c1Cl [1-(2,3-dichlorobenzyl)imidazole hydrochloride]
Mean Steroid Concentration, estradiol (estrogen synthesis; [1]): 2.09 femtomoles per milligram of protein | Mean Steroid Concentration, estriol (estrogen synthesis; [1]): 0.78 femtomoles per milligram of protein | Mean Steroid Concentration, estrone (estrogen synthesis; [1]): 0.34 femtomoles per milligram of protein | Mean Uterine Weight (estrogen synthesis; [1]): 139.4 mg | Mean Steroid Concentration, estradiol (estrogen synthesis; [2]): 1.12 femtomoles per milligram of protein | Mean Steroid Concentration, estriol (estrogen synthesis; [2]): 0.41 femtomoles per milligram of protein | Mean Steroid Concentration, estrone (estrogen synthesis; [2]): 0.23 femtomoles per milligram of protein | Mean Uterine Weight (estrogen synthesis; [2]): 127.3 mg

Structure (SMILES): FC(F)(F)c1cccc(C(c2ccc(Cl)cc2)(c2cccnc2)n2cncn2)c1 (stereo not drawn) [3-[(4-chlorophenyl)-1H--1,2,4-triazol-1-yl-(3-trifluoromethylphenyl)methyl]pyridine]
EC50 (aromatase): 98 nM | Mean Steroid Concentration, estradiol (estrogen synthesis; [3]): 0.88 femtomoles per milligram of protein | Mean Steroid Concentration, estriol (estrogen synthesis; [3]): 0.06 femtomoles per milligram of protein | Mean Steroid Concentration, estrone (estrogen synthesis; [3]): 0.01 femtomoles per milligram of protein | Mean Uterine Weight (estrogen synthesis; [3]): 159.2 mg

EC50 (aromatase): 18 nM
Structure (SMILES): C#CC(c1ccccc1)(c1ccccc1)n1ccnc1 [1-(1,1-diphenyl-2-propynyl)-1H--imidazole]
Mean Steroid Concentration, estradiol (estrogen synthesis; [1]): 1.05 femtomoles per milligram of protein | Mean Steroid Concentration, estriol (estrogen synthesis; [1]): 1.06 femtomoles per milligram of protein | Mean Steroid Concentration, estrone (estrogen synthesis; [1]): 0.00 femtomoles per milligram of protein | Mean Uterine Weight (estrogen synthesis; [1]): 212.3 mg | Mean Steroid Concentration, estradiol (estrogen synthesis; [2]): 1.01 femtomoles per milligram of protein | Mean Steroid Concentration, estriol (estrogen synthesis; [2]): 0.60 femtomoles per milligram of protein | Mean Steroid Concentration, estrone (estrogen synthesis; [2]): 0.00 femtomoles per milligram of protein | Mean Uterine Weight (estrogen synthesis; [2]): 137.6 mg

EC50 (aromatase): < 50 nM
Structure (SMILES): FC(F)(F)c1cccc(C(c2ccc(Cl)cc2)(c2cccnc2)n2ccnc2)c1 (stereo not drawn) [3-[(4-chlorophenyl)-1H--imidazol-1-yl-(3-trifluoromethylphenyl)methyl]pyridine]
Mean Steroid Concentration, estradiol (estrogen synthesis; [3]): 0.70 femtomoles per milligram of protein | Mean Steroid Concentration, estriol (estrogen synthesis; [3]): 0.27 femtomoles per milligram of protein | Mean Steroid Concentration, estrone (estrogen synthesis; [3]): 0.06 femtomoles per milligram of protein | Mean Uterine Weight (estrogen synthesis; [3]): 122.6 mg

EC50 (aromatase): < 50 nM
Structure (SMILES): Cc1nccn1C(c1ccc(Cl)cc1)(c1ccc(Cl)cc1)c1cccnc1 [3-[bis(4-chlorophenyl)(2-methyl-1H--imidazol-1-yl)methyl]pyridine]
Mean Steroid Concentration, estradiol (estrogen synthesis; [3]): 0.89 femtomoles per milligram of protein | Mean Steroid Concentration, estriol (estrogen synthesis; [3]): 0.38 femtomoles per milligram of protein | Mean Steroid Concentration, estrone (estrogen synthesis; [3]): 0.06 femtomoles per milligram of protein | Mean Uterine Weight (estrogen synthesis; [3]): 125.8 mg

Structure (SMILES): c1ccc(C(c2ccccc2)(c2ccccc2)n2ccnc2)cc1 [1-tritylimidazole]
EC50 (aromatase): 32 nM | Mean Steroid Concentration, estradiol (estrogen synthesis; [1]): 0.75 femtomoles per milligram of protein | Mean Steroid Concentration, estriol (estrogen synthesis; [1]): 0.44 femtomoles per milligram of protein | Mean Steroid Concentration, estrone (estrogen synthesis; [1]): 0.23 femtomoles per milligram of protein | Mean Uterine Weight (estrogen synthesis; [1]): 135.0 mg | Mean Steroid Concentration, estradiol (estrogen synthesis; [2]): 0.64 femtomoles per milligram of protein | Mean Steroid Concentration, estriol (estrogen synthesis; [2]): 0.28 femtomoles per milligram of protein | Mean Steroid Concentration, estrone (estrogen synthesis; [2]): 0.21 femtomoles per milligram of protein | Mean Uterine Weight (estrogen synthesis; [2]): 122.6 mg

EC50 (aromatase): 22 nM
Structure (SMILES): CCOc1ccccc1C(C1CCCCC1)n1ccnc1 (stereo not drawn) [1-[cyclohexyl(2-ethoxyphenyl)methyl]-1H--imidazole hydrochloride]
Mean Steroid Concentration, estradiol (estrogen synthesis; [1]): 1.30 femtomoles per milligram of protein | Mean Steroid Concentration, estriol (estrogen synthesis; [1]): 0.36 femtomoles per milligram of protein | Mean Steroid Concentration, estrone (estrogen synthesis; [1]): 0.24 femtomoles per milligram of protein | Mean Uterine Weight (estrogen synthesis; [1]): 149.0 mg | Mean Steroid Concentration, estradiol (estrogen synthesis; [2]): 1.11 femtomoles per milligram of protein | Mean Steroid Concentration, estriol (estrogen synthesis; [2]): 0.28 femtomoles per milligram of protein | Mean Steroid Concentration, estrone (estrogen synthesis; [2]): 0.20 femtomoles per milligram of protein | Mean Uterine Weight (estrogen synthesis; [2]): 96.6 mg

EC50 (aromatase): 160 nM
Structure (SMILES): c1ccc(C(c2ccccc2)(c2ccncc2)n2cncn2)cc1 [4-(diphenyl-1H--1,2,4-triazole-1-ylmethyl)pyridine]

EC50 (aromatase): < 50 nM
Structure (SMILES): CSc1ccc(C(c2ccccc2)(c2cccnc2)n2ccnc2)cc1 (stereo not drawn) [3-(1H--imidazol-1-yl-[4-(methylthio)phenyl]phenylmethyl)pyridine]

EC50 (aromatase): 40 nM
Structure (SMILES): Fc1ccc(C(c2ccccc2)(c2ccc(F)cc2)n2ccnc2)cc1 [1-bis(4-fluorophenyl)phenylmethyl]-1H--imidazole]

EC50 (aromatase): > 5000 nM
Structure (SMILES): Clc1cccc(Cl)c1Cn1ccnc1 [1-[(2,6-dichlorophenyl)methyl]-1H--imidazole hydrochloride]

EC50 (aromatase): 825 nM
Structure (SMILES): c1ccc(C(c2ccccc2)(c2cncnc2)n2cncn2)cc1 [5-(diphenyl-1H--1,2,4-triazol-1-ylmethyl)pyrimidine]

EC50 (aromatase): 140 nM
Structure (SMILES): CCOc1ccccc1C(CC)n1ccnc1 (stereo not drawn) [1-[1-(2-ethoxyphenyl)propyl]-1H--imidazole nitrate]

Structure (SMILES): Clc1ccc(C(c2ccc(Cl)cc2)(c2cccnc2)n2cncn2)cc1 [3-[bis(4-chlorophenyl)-1H--1,2,4-triazol-1-ylmethyl]pyridine]
EC50 (aromatase): 60 nM | Mean Steroid Concentration, estradiol (estrogen synthesis; [1]): 1.83 femtomoles per milligram of protein | Mean Steroid Concentration, estriol (estrogen synthesis; [1]): 0.36 femtomoles per milligram of protein | Mean Steroid Concentration, estrone (estrogen synthesis; [1]): 0.06 femtomoles per milligram of protein | Mean Uterine Weight (estrogen synthesis; [1]): 150.8 mg | Mean Steroid Concentration, estradiol (estrogen synthesis; [2]): 1.18 femtomoles per milligram of protein | Mean Steroid Concentration, estriol (estrogen synthesis; [2]): 0.13 femtomoles per milligram of protein | Mean Steroid Concentration, estrone (estrogen synthesis; [2]): 0.06 femtomoles per milligram of protein | Mean Uterine Weight (estrogen synthesis; [2]): 85.6 mg

EC50 (aromatase): 125 nM
Structure (SMILES): Clc1cccc(Cl)c1COc1ccccc1Cn1ccnc1 [1-[(2-[2,6-dichlorobenzyloxy]phenyl)methyl]-1H--imidazole nitrate]

EC50 (aromatase): 110 nM
Structure (SMILES): Clc1ccc(C(c2ccccc2)(c2ccc(Cl)cc2)n2ccnc2)cc1 [1-[bis(4-chlorophenyl)phenylmethyl]-1H--imidazole]

EC50 (aromatase): > 5000 nM
Structure (SMILES): c1ccc(C(c2ccccc2)n2cncn2)cc1 [1-diphenylmethyl-1H--1,2,4-triazole]

EC50 (aromatase): 80 nM
Structure (SMILES): Cc1nccn1C(c1ccccc1)(c1ccccc1)c1ccc(Cl)cc1 [1-[(4-chlorophenyl)diphenylmethyl]-2-methyl-1H--imidazole]

Structure (SMILES): Clc1ccc(Cn2ccnc2)cc1Cl [1-[(3,4-dichlorophenyl)methyl]-1H--imidazole hydrochloride]
EC50 (aromatase): 320 nM

EC50 (aromatase): 420 nM
Structure (SMILES): Clc1ccc(C(c2ccc(Cl)cc2)(c2ccc(Cl)cc2)n2cncn2)cc1 [1-[tris(4-chlorophenyl)methyl]-1H--1,2,4-triazole]

Structure (SMILES): Clc1ccccc1C(c1ccccc1Cl)n1cncn1 [1-[bis(2-chlorophenyl)methyl]-1H--1,2,4-triazole]
EC50 (aromatase): > 5000 nM

EC50 (aromatase): 920 nM
Structure (SMILES): Cc1cccc(Cn2ccnc2)c1 [1-[(3-methylphenyl)methyl]-1H--imidazole ethanedioate]

EC50 (aromatase): 96 nM
Structure (SMILES): c1ccc(C(c2ccccc2)(c2cccc3ccccc23)n2ccnc2)cc1 [1-(1-naphthalenyldiphenylmethyl)-1H--imidazole]

EC50 (aromatase): 94 nM
Structure (SMILES): Cc1nccn1C(c1ccccc1)(c1ccc(Cl)cc1)c1ccc(Cl)cc1 [1-[bis(4-chlorophenyl)phenylmethyl]-2-methyl-1H--imidazole]

EC50 (aromatase): 3100 nM
Structure (SMILES): O=[N+]([O-])c1ccccc1Cn1ccnc1 [1-[(2-nitrophenyl)methyl]-1H--imidazole hydrochloride]

EC50 (aromatase): 2500 nM
Structure (SMILES): CC(c1ccccc1Cl)n1ccnc1 (stereo not drawn) [1-[1-(2-chlorophenyl)ethyl]-1H--imidazole hydrochloride]

EC50 (aromatase): 840 nM
Structure (SMILES): Cc1ccc(Cn2ccnc2)cc1 [1-[(4-methylphenyl)methyl]-1H--imidazole hydrochloride]

Structure (SMILES): Fc1ccc(C(c2ccccc2)(c2ccc(F)cc2)n2cncn2)cc1 [1-[bis(4-fluorophenyl)phenylmethyl]-1H--1,2,4-triazole]
EC50 (aromatase): 80 nM

EC50 (aromatase): 630 nM
Structure (SMILES): Fc1ccc(Cn2ccnc2)cc1 [1-[(4-fluorophenyl)methyl]-1H--imidazole nitrate]

Structure (SMILES): Clc1ccc(C(c2ccccc2)n2cncn2)cc1 (stereo not drawn) [1-[(4-chlorophenyl)phenylmethyl]-1H--1,2,4-triazole]
EC50 (aromatase): 150 nM

EC50 (aromatase): 1560 nM
Structure (SMILES): CCOc1ccccc1Cn1ccnc1 [1-[(2-ethoxyphenyl)methyl]-1H--imidazole hydrochloride]

EC50 (aromatase): 1650 nM
Structure (SMILES): c1ccc(-c2ccc(Cn3ccnc3)cc2)cc1 [1-[(1,1'-biphenyl)-4-ylmethyl]-1H--imidazole hydrochloride]

From US4755526A, “Method of inhibiting aromatase” (Eli Lilly and Company, priority 1984, dated 1988)
